Tested on: frataxin protein in GM15850 FRDA cells
Assay: Western blot of frataxin protein
Format: cell-based, human
Details: 1-2 μM for 7 days, SDS-PAGE and western blot
Method: Since the primary transcripts from FRDA frataxin genes contain long stretches of GAA repeat RNA sequence, it is conceivable that this RNA will not be correctly processed into mature frataxin mRNA and frataxin protein will not be produced. To test whether polyamide FA 1 leads to increased levels of frataxin protein in treated lymphoid cells, total cell extracts from polyamide-treated (1-2 μM for 7 days) and untreated GM15851 control and GM15850 FRDA cells were subjected to SDS-PAGE, and the corresponding blots were probed with anti-frataxin or anti-actin antibodies. SDS-PAGE (i.e., sodium dodecylsulfate-polyacrylamide gel electrophoresis) was conducted by standard methods well known in the art.
Western Blot Analysis. Total cell extracts were used for SDS-PAGE and western blotting with antibodies to human frataxin (Chemicon) or actin (Santa Cruz Biotechnology) as a control for cell number and protein loading. Signals were detected by chemiluminescence after probing the blot with HRP-conjugated secondary antibody (Supersignal West, Pierce). To quantify the relative levels of proteins, autoradiograms (within the linear response range of X-ray film) were converted into digital images and the signals quantified using Molecular Dynamics ImageQuant software.

CN(C)CCCNC(=O)CCNC(=O)c1nc(NC(=O)CCNC(=O)c2cc(NC(=O)c3nc(NC(=O)CCNC(=O)c4cc(NC(=O)c5nccn5C)cn4C)cn3C)cn2C)cn1C [FA1, ImPyβImPyβImβDp]
increase in frataxin protein: 2-3 fold
